{"source": "patent US6955766B2", "about": "“Method for reducing harmful organisms in currents of water” (priority 1999, dated 2005)", "origin": "cited, not measured here", "system": "zebra mussels", "settings": "batchwise treatment of water"}
{"compound": "CC(=O)OO", "note": "[peroxyacetic acid]", "values": [{"measurement": "concentration necessary to achieve an acceptable mortality rate of the mussels in a sufficiently short time", "result": "≥ 10", "unit": "mg/L"}]}
